Target: T1, HMG-CoA reductase (Rattus norvegicus, UniProt P51639)
T1 construct: the male rat liver was removed and rinsed with KESD buffer; from tissue; host or cells: male rat liver microsomes
T1 sequence (P51639 1-887): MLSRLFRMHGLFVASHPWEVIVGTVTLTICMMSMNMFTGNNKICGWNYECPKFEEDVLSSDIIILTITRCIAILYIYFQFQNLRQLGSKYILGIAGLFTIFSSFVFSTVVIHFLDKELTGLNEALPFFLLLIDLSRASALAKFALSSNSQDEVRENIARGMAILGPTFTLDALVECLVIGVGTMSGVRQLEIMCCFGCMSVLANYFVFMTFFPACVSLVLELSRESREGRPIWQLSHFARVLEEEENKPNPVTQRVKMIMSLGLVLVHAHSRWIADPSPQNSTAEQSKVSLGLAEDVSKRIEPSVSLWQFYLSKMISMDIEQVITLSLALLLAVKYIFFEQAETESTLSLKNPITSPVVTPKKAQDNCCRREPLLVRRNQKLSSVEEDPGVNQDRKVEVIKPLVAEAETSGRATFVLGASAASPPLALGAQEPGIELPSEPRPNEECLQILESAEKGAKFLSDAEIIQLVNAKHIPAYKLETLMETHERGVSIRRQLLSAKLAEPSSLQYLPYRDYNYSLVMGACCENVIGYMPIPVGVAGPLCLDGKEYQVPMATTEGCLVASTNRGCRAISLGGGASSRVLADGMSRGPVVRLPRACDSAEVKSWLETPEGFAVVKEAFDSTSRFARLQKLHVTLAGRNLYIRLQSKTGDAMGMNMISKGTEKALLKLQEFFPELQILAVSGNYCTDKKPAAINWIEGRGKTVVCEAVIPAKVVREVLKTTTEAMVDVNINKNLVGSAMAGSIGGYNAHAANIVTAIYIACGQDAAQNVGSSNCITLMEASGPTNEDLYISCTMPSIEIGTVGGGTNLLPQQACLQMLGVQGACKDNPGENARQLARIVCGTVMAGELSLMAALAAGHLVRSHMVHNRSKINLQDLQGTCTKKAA
Experiment: Assay on HMG-CoA reductase-inhibiting activity (decreasing rate of OD340)
Type: biochemical
Settings: for Inhibition rate (%): rat liver microsomes, 37° C., pH 6.8; for Slope (decreasing rate of OD340 within 5 min): blank control slope 13.5
Protocol: Rat liver microsomes (HMG-CoA reductase) were commercially purchased, or were prepared by reference to the following method: the male rat liver was removed and rinsed with KESD buffer, and then centrifuged at 12,000 g for 15 min. The supernatant was taken. After centrifugation at 105,000 g for 90 min twice, the centrifuged pellets resulted from centrifugation were collected. To the centrifuged pellets, 8.3% glycerol was added, and the resultant mixture was heated in a 37° C. warm bath for 1 h. The crude product of the rat liver microsomes was purified with saturated ammonium sulfate, and the 35-50% purified fraction was collected. The rat liver microsomes obtained were stored in −80° C. refrigerator.
Compound 5 was dissolved in 75% ethanol solution, at an initial concentration of 8.6 mg/ml, and was subjected to stepwise dilution to obtain 4.3 mg/ml, 2.15 mg/ml. The total volume of the test system was 250 μl, and the concentrations of various ingredients were as follows: 200 mM potassium chloride, 160 mM potassium dihydrogen phosphate, 4 mM ethylenediamine tetra acetic acid, 10 mM dithiothreitol, and the concentrations for the two substrates […] and 3-hydroxy-3-methylglutaryl-coenzyme A were 200 μM and 50 μM, pH 6.8, respectively, wherein 30 μl was added for enzyme, 5 μl was added for the test group, and 5 μl (solvent for dissolving the sample) was added for the control group. The dynamic change in OD340 was determined at 37° C. by Versamax ELISA Microplate Reader. The decreasing rate of OD340 (represented by slope) was measured within 5 min, to evaluate the HMG-CoA reductase activity, and to further evaluate the enzyme-inhibiting activity.

SMILES | Inhibition rate (%) (final concentration 80 μg/ml (inhibitor 4.0 mg/ml, 5 μl)) | Slope (decreasing rate of OD340 within 5 min) (final concentration 80 μg/ml) | HMG-CoA reductase inhibition, result in words (43-172 μg/ml, dose-response relationship) | Inhibition rate (%) (final concentration 43 μg/ml (inhibitor 2.15 mg/ml, 5 μl)) | Slope (decreasing rate of OD340 within 5 min) (final concentration 43 μg/ml) | Inhibition rate (%) (final concentration 86 μg/ml (inhibitor 4.3 mg/ml, 5 μl)) | Slope (decreasing rate of OD340 within 5 min) (final concentration 86 μg/ml) | Inhibition rate (%) (final concentration 172 μg/ml (inhibitor 8.6 mg/ml, 5 μl)) | Slope (decreasing rate of OD340 within 5 min) (final concentration 172 μg/ml)
CC[C@H](C)C(=O)O[C@H]1C[C@@H](C)C=C2C=C[C@H](C)[C@H](CC[C@@H]3C[C@@H](O)CC(=O)O3)[C@H]21 [lovastatin, reference compound] | 39.2% | 8.2 |  |  |  |  |  |  | 
COC(=O)CC(O)CC(O)CCC1c2ccc(C)cc2C=CC1C (stereo not drawn) [Compound 5, methyl 7-(2,6-dimethyl-1,2-dihydronaphthalen-1-yl)-3,5-dihydroxyheptanoate] |  |  | inhibited the HMG-CoA reductase activity, and exhibited a dose-response relationship | 19.2% | 10.9 | 33.3% | 9.0 | 42.2% | 7.8

Reference: patent publication US10099998B2, “Compound, and separation method, synthesis method and use thereof” (BEIJING PEKING UNIVERSITY WBL BIOTECH CO., LTD., priority 2015, dated 2018)
